Key:
Assay in all cases: relative viability (nuclei count vs DMSO), 5 days (fraction); higher = more cells survive
[1] = compound: C(C(=O)C(=O)O)Br [Bromopyruvate] + Nc1nc2[nH]cc(CCc3ccc(C(=O)N[C@@H](CCC(=O)O)C(=O)O)cc3)c2c(=O)[nH]1 [Pemetrexed] (partner 0.2 µM)
Procedure, shortened: (§1)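 Values are medians from duplicate plates. Each reflects relative viability, defined as the nuclei count of treated wells over that of vehicle wells. Lung cancer cell lines in 1536-well plates were pin-tool dosed one day after seeding with one drug alone or with a fixed anchor-drug dose plus five library-drug doses (not always all listed) in √10 steps, then fixed, stained and imaged at 4× after 5 days.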

[2] = compound: C(C(=O)C(=O)O)Br [Bromopyruvate] + CC1(C)CCC(c2ccc(Cl)cc2)=C(CN2CCN(c3ccc(C(=O)NS(=O)(=O)c4ccc(N[C@H](CCN5CCOCC5)CSc5ccccc5)c(S(=O)(=O)C(F)(F)F)c4)cc3)CC2)C1 [Navitoclax] (partner 0.5 µM)
Procedure, shortened: as §1

[3] = compound: CC(O)(CS(=O)(=O)c1ccc(F)cc1)C(=O)Nc1ccc(C#N)c(C(F)(F)F)c1 [Bicalutamide] + N=C(N)NC(=N)NCCc1ccccc1 [Phenformin] (partner 250 µM)
Procedure, shortened: as §1

[4] = compound: C(C(=O)C(=O)O)Br [Bromopyruvate] + CC(C)C[C@H](NC(=O)[C@H](Cc1ccccc1)NC(=O)c1cnccn1)B(O)O [Bortezomib] (partner 0.002 µM)
Procedure, shortened: as §1

Cell Line	relative viability ([1]; first compound 1 µM)	relative viability ([1]; first compound 3.162 µM)	relative viability ([1]; first compound 10 µM)	relative viability ([1]; first compound 31.62 µM)	relative viability ([1]; first compound 100 µM)	relative viability ([2]; first compound 1 µM)	relative viability ([2]; first compound 3.162 µM)	relative viability ([2]; first compound 10 µM)	relative viability ([2]; first compound 31.62 µM)	relative viability ([2]; first compound 100 µM)	relative viability ([3]; first compound 0.08 µM)	relative viability ([3]; first compound 0.253 µM)	relative viability ([3]; first compound 0.8 µM)	relative viability ([3]; first compound 2.53 µM)	relative viability ([4]; first compound 1 µM)	relative viability ([4]; first compound 3.162 µM)	relative viability ([4]; first compound 10 µM)	relative viability ([4]; first compound 31.62 µM)	relative viability ([4]; first compound 100 µM)
201T	0.327	0.345	0.323	0.357	0.297	1.28	1.15	1.18	1.2	1.19	0.503	0.414	0.481	0.416	1.11	1.08	1.11	1.1	1.03
A549						1.23	1.22	1.36	1.22	1.33	0.247	0.11	0.181	0.254					
A-427	1.05	0.975	1.05	0.863	1.07	0.967	0.876	0.895	1.02	1.04	0.382	0.283	0.367	0.224	0.999	1.02	0.931	1.05	1.06
ABC-1											0.26	0.229	0.253	0.212	0.342	0.31		0.347	0.332
BEN	0.87	0.656	0.833	0.62	0.753	0.0705	0.0702	0.072	0.0664	0.0566	0.257	0.262	0.28	0.279	0.897	0.724	0.78	0.836	0.682
CAL-12T	1.26	1.05	1.25	1.1	1.05	1.06	1.23	1.34	1.34	1.08	0.609	0.505	0.626	0.493	1.04	1.08	0.904	0.977	0.934
COR-L23	0.184	0.194	0.195	0.183	0.202	0.77	1.05	1.12	0.851	0.401	0.5	0.487	0.512	0.414	0.943	0.939	1.12	0.975	0.486
COR-L 105	1.25	1.19	1.1	1	0.532	0.757	0.962	0.689	0.688	0.549	0.481	0.412	0.52	0.37	0.559	0.876	0.526	0.769	0.566
Calu-6						0.939	0.922	0.779	0.792	0.74					1.09	1.05	1.07	0.993	0.903
ChaGo-K-1	0.266	0.254	0.261	0.27	0.259	1.17	0.99	0.963	0.96	0.879	0.449	0.388	0.509	0.48	1.08	1.02	1.01	1.07	0.953

Reference: the supplement of paper PMC10307832
